Data from US8937067B2, “Activators of human pyruvate kinase” (The United States of America, as represented by the …, priority 2008, dated 2015).
Like-named read-outs stand apart in the source and are kept apart here. Blank lines part the entries; values can stand above or below the molecule they belong to.

Biological target: hPK-M2 (Homo sapiens, UniProt P14618)
Assay: Luminescent pyruvate kinase-luciferase coupled assay (KinaseGlo)
Type: biochemical
Conditions: for activation at 57 µM: read-out: hPK, M2 Max. Res.
Method: Luminescent Pyruvate Kinase-Luciferase Coupled Assay.
Production of a luminescent signal based on the generation of ATP by pyruvate kinase was determined by using the ATP-dependent enzyme firefly luciferase. Three μL of substrate mix (at r.t.) in assay buffer (50 mM imidazole pH 7.2, 50 mM KCl, 7 mM MgCl2, 0.01% tween 20, 0.05% BSA) was dispensed into Kalypsys white solid bottom 1,536 well microtiter plates using a bottle-valve solenoid-based dispenser (Kalypsys). The final concentrations of substrates in the assay were 0.1 mM ADP and 0.5 mM PEP. […] Microtiter plates were incubated at r.t. for 1 hour and 2 uL of luciferase detection mix (Kinase-Glo, Promega at 4° C. protected from light) was added and luminescence was read with a ViewLux (Perkin Elmer) using a 5 second exposure/plate. Data was normalized for AC50 values to control columns containing uninhibited enzyme (n), and AC100 inhibition (i) according the following equation: Activation (%)=[(c−n)/(n−i)]*100 where c=compound, n=DMSO neutral, i=no enzyme control. […] Monitoring of activation was accomplished using enzyme at 3× the final concentration.

[1] = KinaseGlo, % activation at 57 μM of compound
[2] = luminescent pyruvate kinase-luciferase coupled assay (KinaseGlo), tables, read-out: hPK, M2 AC50

Chain of hPK-M2 (P14618 whole entry): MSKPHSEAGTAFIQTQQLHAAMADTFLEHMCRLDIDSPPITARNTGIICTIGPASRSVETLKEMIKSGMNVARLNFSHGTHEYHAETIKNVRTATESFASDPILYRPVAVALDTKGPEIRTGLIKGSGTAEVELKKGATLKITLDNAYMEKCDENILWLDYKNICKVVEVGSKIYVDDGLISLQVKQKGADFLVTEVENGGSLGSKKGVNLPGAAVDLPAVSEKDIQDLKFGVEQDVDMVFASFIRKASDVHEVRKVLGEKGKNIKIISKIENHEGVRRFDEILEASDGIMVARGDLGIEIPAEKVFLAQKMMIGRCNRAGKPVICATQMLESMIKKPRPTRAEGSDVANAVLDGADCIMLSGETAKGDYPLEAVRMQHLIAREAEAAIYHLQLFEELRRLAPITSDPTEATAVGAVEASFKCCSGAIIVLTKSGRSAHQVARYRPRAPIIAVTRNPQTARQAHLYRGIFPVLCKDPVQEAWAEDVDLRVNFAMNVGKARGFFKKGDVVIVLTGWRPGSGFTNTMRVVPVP

hPK, M2 Max. Res. [1]: 54.00%
AC50 [2]: 92 nM
Structure (SMILES): CN(C)c1cccc(S(=O)(=O)N2CCN(S(=O)(=O)c3ccc4c(c3)OCCO4)CC2)c1 [Compound 138]

activation at 57 µM [1]: 108 ± 5.3%
AC50 [2]: 3050 ± 200 nM
Structure (SMILES): O=S(=O)(NCC1CN(S(=O)(=O)c2ccc3c(c2)OCCO3)C1)c1c(F)cccc1F [Compound 44, N-((1-(2,3-dihydrobenzo[b][1,4]dioxin-6-ylsulfonyl)azetidin-3-yl)methyl)-2,6-difluorobenzenesulfonamide]

activation at 57 µM [1]: 32.9 ± 3.8%
Structure (SMILES): Cc1cc2[nH]c3c(=O)n(Cc4ccccc4F)ncc3c2s1 [Compound 89, 2-Methyl-6-[(2-fluorophenyl)methyl]-4H-thieno[3,2-b]pyrrole[3,2-d]pyridazinone]

activation at 57 µM [1]: 61 ± 1.2%
AC50 [2]: 191 nM
Structure (SMILES): O=S(=O)(c1ccc2c(c1)OCO2)N1CCN(S(=O)(=O)c2c(F)cccc2F)CC1 [Compound 24, 1-(benzo[d][1,3]dioxol-5-ylsulfonyl)-4-(2,6-difluorophenylsulfonyl)piperazine]

activation at 57 µM [1]: 101 ± 1.9%
AC50 [2]: 3690 ± 1260 nM
Structure (SMILES): O=S(=O)(NC1CCN(S(=O)(=O)c2c(F)cccc2F)CC1)c1ccc2c(c1)OCCO2 [Compound 39, N-(1-(2,6-difluorophenylsulfonyl)piperidin-4-yl)-2,3-dihydrobenzo[b][1,4]dioxine-6-sulfonamide]

activation at 57 µM [1]: 60.3 ± 20.6%
Structure (SMILES): O=S(=O)(NCCNS(=O)(=O)c1c(F)cccc1F)c1ccc2c(c1)OCCO2 [Compound 32, N-(2-(2,6-difluorophenylsulfonamido)ethyl)-2,3-dihydrobenzo[b][1,4]dioxine-6-sulfonamide]

hPK, M2 Max. Res. [1]: 81.00%
AC50 [2]: 1600 nM
Structure (SMILES): Nc1cc(S(=O)(=O)N2CCN(S(=O)(=O)c3ccc4c(c3)OCCO4)CC2)ccn1 [Compound 146]

hPK, M2 Max. Res. [1]: 63.00%
AC50 [2]: 81 nM
Structure (SMILES): CCNc1cccc(S(=O)(=O)N2CCN(S(=O)(=O)c3ccc4c(c3)OCCO4)CC2)c1 [Compound 136]

activation at 57 µM [1]: 108 ± 9.9%
AC50 [2]: 9180 ± 2560 nM
Structure (SMILES): C[C@@H]1CN(S(=O)(=O)c2ccc3c(c2)OCCO3)CCN1S(=O)(=O)c1c(F)cccc1F [Compound 47, (R)-1-(2,6-difluorophenylsulfonyl)-4-(2,3-dihydrobenzo[b][1,4]dioxin-6-ylsulfonyl)-2-methylpiperazine]

activation at 57 µM [1]: 120 ± 7.3%
AC50 (luciferase-coupled assay, read-out: AC50): 866 nM
Structure (SMILES): O=S(=O)(c1ccc2c(c1)OCCO2)N1CCCN(S(=O)(=O)c2c(F)cccc2F)CC1 [Compound 31, 1-(2,6-difluorophenylsulfonyl)-4-(2,3-dihydrobenzo[b][1,4]dioxin-6-ylsulfonyl)-1,4-diazepane]

hPK, M2 Max. Res. [1]: 93.5 ± 5.9%
AC50 [2]: 2710 nM
Structure (SMILES): CN1CCOc2ccc(S(=O)(=O)N3CCN(S(=O)(=O)c4c(F)cccc4F)CC3)cc21 [Compound 25, 6-(4-(2,6-difluorophenylsulfonyl)piperazin-1-ylsulfonyl)-4-methyl-3,4-dihydro-2H-benzo[b][1,4]oxazine]

activation at 57 µM [1]: 103 ± 6.6%
AC50 [2]: 542 nM
Structure (SMILES): O=S(=O)(c1ccc2c(c1)OCCO2)N1CCN(S(=O)(=O)c2ccccn2)CC1 [Compound 18, 1-(2,3-dihydrobenzo[b][1,4]dioxin-6-ylsulfonyl)-4-(pyridin-2-ylsulfonyl)piperazine]

activation at 57 µM [1]: 82.4 ± 18%
AC50 [2]: > 15000 nM
Structure (SMILES): O=S(=O)(NC1CCN(S(=O)(=O)c2c(F)cccc2F)C1)c1ccc2c(c1)OCCO2 (stereo not drawn) [Compound 41, N-(1-(2,6-difluorophenylsulfonyl)pyrrolidin-3-yl)-2,3-dihydrobenzo[b][1,4]dioxine-6-sulfonamide]

activation at 57 µM [1]: 106 ± 5.1%
AC50 [2]: 3850 ± 530 nM
Structure (SMILES): O=S(=O)(NCCCNS(=O)(=O)c1c(F)cccc1F)c1ccc2c(c1)OCCO2 [Compound 33, N-(3-(2,6-difluorophenylsulfonamido)propyl)-2,3-dihydrobenzo[b][1,4]dioxine-6-sulfonamide]

activation at 57 µM [1]: 99.6 ± 3.1%
AC50 [2]: 9000 ± 4500 nM
Structure (SMILES): O=S(=O)(NC1CCN(S(=O)(=O)c2ccc3c(c2)OCCO3)CC1)c1c(F)cccc1F [Compound 40, N-(1-(2,3-dihydrobenzo[b][1,4]dioxin-6-ylsulfonyl)piperidin-4-yl)-2,6-difluorobenzenesulfonamide]

activation at 57 µM [1]: 110 ± 5.4%
AC50 [2]: 863 nM
Structure (SMILES): O=S(=O)(c1ccc2c(c1)OCCO2)C1CCN(S(=O)(=O)c2c(F)cccc2F)CC1 [Compound 30, 1-(2,6-difluorophenylsulfonyl)-4-(2,3-dihydrobenzo[b][1,4]dioxin-6-ylsulfonyl)piperidine]

activation at 57 µM [1]: 101 ± 1.4%
Structure (SMILES): Cn1c2cc(B(O)O)sc2c2cnn(Cc3ccccc3F)c(=O)c21 [Compound 86, 4-Methyl-6-[(2-fluorophenyl)methyl]-4,1-thieno[3,2-b]pyrrole[3,2-d]pyridazinone, 2-ylboronic acid]

The remaining lines, values behind:

Structure (SMILES): CCn1c2cc(C)sc2c2cnn(Cc3ccccc3F)c(=O)c21 [Compound 90, 2-Methyl-4-ethyl-6-[(2-fluorophenyl)methyl]-4H-thieno[3,2-b]pyrrole[3,2-d]pyridazinone]
hPK, M2 Max. Res. [1]: 95.6 ± 6.3%
AC50 [2]: 5900 ± 1700 nM

Structure (SMILES): Cc1cc2c(s1)c1cnn(Cc3cccc(Cl)c3)c(=O)c1n2C [Compound 107, 2,4-Methyl-6-[(3-chlorophenyl)methyl]-4H-thieno[3,2-b]pyrrole[3,2-d]pyridazinone]
activation at 57 µM [1]: 99.1 ± 3.1%
AC50 [2]: 126 ± 10 nM

Structure (SMILES): Cc1cc2c(s1)c1cnn(Cc3cccc(F)c3)c(=O)c1n2C [Compound 104]
activation at 57 µM [1]: 91.5 ± 8.4%
AC50 [2]: 225 ± 100 nM

Structure (SMILES): COc1ccc(S(=O)(=O)N2CCN(S(=O)(=O)c3ccc(OC)cc3)CC2)cc1 [Compound 3, 1,4-bis(4-methoxyphenylsulfonyl)piperazine]
activation at 57 µM [1]: 87.6 ± 16.2%
AC50 [2]: 171 nM

Structure (SMILES): Cn1c2cc([N+](=O)[O-])sc2c2cnn(Cc3ccccc3F)c(=O)c21 [Compound 80, 2-Nitro-4-methyl-6-[(2-fluorophenyl)methyl]-4H-thieno[3,2-b]pyrrole[3,2-d]pyridazinone]
AC50 [2]: 18 ± 10 nM

Structure (SMILES): Cc1cc2c(s1)c1cnn(Cc3ccccc3)c(=O)c1n2C [Compound 103, 2,4-Methyl-6-phenylmethyl-4H-thieno[3,2-b]pyrrole[3,2-d]pyridazinone]
AC50 [2]: 62 ± 20 nM

Structure (SMILES): COc1cccc(S(=O)(=O)N2CCN(S(=O)(=O)c3ccc4c(c3)OCCO4)CC2)c1 [Compound 17, 1-(2,3-dihydrobenzo[b][1,4]dioxin-6-ylsulfonyl)-4-(3-methoxyphenylsulfonyl)piperazine]
activation at 57 µM [1]: 90 ± 4.5%
AC50 [2]: 113 nM

Structure (SMILES): O=S(=O)(c1ccc2c(c1)OCCO2)N1CCN(S(=O)(=O)c2ccc(F)cc2F)CC1 [Compound 14, 1-(2,4-difluorophenylsulfonyl)-4-(2,3-dihydrobenzo[b][1,4]dioxin-6-ylsulfonyl)piperazine]
activation at 57 µM [1]: 113 ± 6.3%
AC50 [2]: 124 nM

Structure (SMILES): COc1cc(F)c(S(=O)(=O)N2CCN(S(=O)(=O)c3ccc4c(c3)OCCO4)CC2)c(F)c1 [Compound 11, 1-(2,6-difluoro-4-methoxyphenylsulfonyl)-4-(2,3-dihydrobenzo[b][1,4]dioxin-6-ylsulfonyl)piperazine]
activation at 57 µM [1]: 91.8 ± 9.6%
AC50 [2]: 28 nM

Structure (SMILES): Cn1c2ccsc2c2cnn(Cc3ccccc3F)c(=O)c21 [Compound 70, 4-Methyl-6-[(2-fluorophenyl)methyl]-4H-thieno[3,2-b]pyrrole[3,2-d]pyridazinone]
activation at 57 µM [1]: 93.2 ± 6.6%
AC50 [2]: 605 ± 180 nM

Structure (SMILES): Cn1c2cc([S+](C)[O-])sc2c2cnn(Cc3cccc(N)c3)c(=O)c21 (stereo not drawn) [Compound 149]
activation at 57 µM: 91%

Structure (SMILES): COc1cc2c(s1)c1cnn(Cc3ccccc3F)c(=O)c1n2C [Compound 71, 2-Methoxy-4-methyl-6-[(2-fluorophenyl)methyl]-4H-thieno[3,2-b]pyrrole[3,2-d]pyridazinone]
AC50 [2]: 86 ± 40 nM

Structure (SMILES): Cc1ccc(Cn2ncc3c4sc(C)cc4n(C)c3c2=O)cc1 [Compound 109, 2,4-Methyl-6-[(4-methylphenyl)methyl]-4H-thieno[3,2-b]pyrrole[3,2-d]pyridazinone]
activation at 57 µM [1]: 84.1 ± 5.5%
AC50 [2]: 356 ± 120 nM

Structure (SMILES): Cc1cc2c(s1)c1cnn(Cc3ccc(F)cc3)c(=O)c1n2C [Compound 105, 2,4-Methyl-6-[(4-fluorophenyl)methyl]-4H-thieno[3,2-b]pyrrole[3,2-d]pyridazinone]
activation at 57 µM [1]: 102 ± 8.9%
AC50 [2]: 57 ± 20 nM

Structure (SMILES): O=S(=O)(c1ccc2c(c1)OCCO2)N1CCN(S(=O)(=O)c2ccccc2F)CC1 [Compound 8, 1-(2,3-dihydrobenzo[b][1,4]dioxin-6-ylsulfonyl)-4-(2-fluorophenylsulfonyl)piperazine]
activation at 57 µM [1]: 114 ± 4%
AC50 [2]: 89 nM

Structure (SMILES): COC(=O)c1cc2c(s1)c1cnn(Cc3ccccc3F)c(=O)c1n2C [Compound 83, Methyl 4-methyl-6-[(2-fluorophenyl)methyl]-4,1-thieno[3,2-b]pyrrole[3,2-d]pyridazinone-2-carboxylate]
activation at 57 µM [1]: 70.4 ± 12.9%
AC50 [2]: 84 ± 30 nM

Structure (SMILES): CCc1cc2c(s1)c1cnn(Cc3ccccc3F)c(=O)c1n2C [Compound 68, 2-Ethyl-4-methyl-6-[(2-fluorophenyl)methyl]-4H-thieno[3,2-b]pyrrole[3,2-d]pyridazinone]
activation at 57 µM [1]: 105 ± 5.8%
AC50 [2]: 100 ± 30 nM

Structure (SMILES): Cc1cc2c(s1)c1cnn(Cc3c(F)cccc3Cl)c(=O)c1n2C [Compound 115, 2,4-Methyl-6-[(2-chloro-6-fluorophenyl)methyl]-4H-thieno[3,2-b]pyrrole[3,2-d]pyridazinone]
activation at 57 µM [1]: 92.9 ± 4.1%
AC50 [2]: 60 ± 20 nM
